Source: patent publication US9730447B2, “Fungicidal amides” (E I DU PONT DE NEMOURS AND COMPANY, priority 2013, dated 2017)

Assays:
Assay type in all cases: in vivo
[1] = tested on: Puccinia recondite f. sp. tritici; assay: Test D: preventive spray on wheat seedlings, Puccinia recondite f. sp. tritici (wheat leaf rust), visual disease rating; conditions: 100 = 100% disease control, 0 = no control, unmarked values
Method in brief: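 Wheat seedlings sprayed to run-off with 40 ppm (160 g ai/ha) or 10 ppm (40 g ai/ha) suspension in acetone/water with 250 ppm surfactant, inoculated next day with leaf rust spores. After 24 h saturated at 20 °C then 6 days at 20 °C, visual rating of disease control (0–100) relative to controls.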

[2] = tested on: Stagonospora nodorum (also known as Septoria nodorum); assay: Test B: preventive spray on wheat seedlings, Stagonospora nodorum (wheat glume blotch), visual disease rating; conditions: 100 = 100% disease control, 0 = no control, unmarked values
Method in brief: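 Compounds in acetone/water (50/50) with 250 ppm Trem 014 surfactant were sprayed to run-off at 40 ppm (160 g ai/ha) or 10 ppm (40 g ai/ha). Seedlings were inoculated with S. nodorum spores the next day, then held 48 h saturated at 20 °C and 6 days in a growth chamber at 20 °C. Visual rating as % disease control vs untreated.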

[3] = tested on: Erysiphe graminis f. sp. tritici; assay: Test E: preventive spray on wheat seedlings, Erysiphe graminis f. sp. tritici (wheat powdery mildew), visual disease rating; conditions: 100 = 100% disease control, 0 = no control, unmarked values
Method in brief: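 Wheat seedlings were sprayed to run-off with 40 or 10 ppm suspension (160 or 40 g ai/ha) and dusted with spores the next day. They were then kept 8 days at 20 °C. Disease was rated visually as % control relative to untreated controls (0–100).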

Septoria tritici = assay: Test C: preventive spray on wheat seedlings, Septoria tritici (wheat leaf blotch), visual disease rating; conditions: 100 = 100% disease control, 0 = no control, unmarked values
Method in brief: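 Wheat seedlings sprayed to run-off at 40 ppm or 10 ppm (160 or 40 g ai/ha) in acetone/water with surfactant, inoculated with Septoria tritici spores next day. Held 48 h saturated at 24 °C, then 21 days at 20 °C. Visual rating scored as % disease control relative to controls.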

Botrytis cinerea = assay: Test A: preventive spray on tomato seedlings, Botrytis cinerea (gray mold), visual disease rating; conditions: 100 = 100% disease control, 0 = no control relative to controls, unmarked values
Method in brief: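 Tomato seedlings sprayed to run-off with 40 ppm or 10 ppm suspensions (160 or 40 g ai/ha) in acetone/water with 250 ppm surfactant. Inoculated with B. cinerea spores next day, held saturated at 20 °C for 48 h, then 27 °C for 2 days. Visual rating, 0–100% disease control relative to controls.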

Row | Compound | Test D disease control rating [1] [%] | Test B disease control rating [2] [%] | Test E disease control rating [3] [%] | Test C disease control rating (Septoria tritici) [%] | Test A disease control rating (Botrytis cinerea) [%]
1 | COc1ccccc1-c1cnn(-c2ccc(-c3ccccc3NC(=O)c3cn(C)nc3C(F)F)cn2)c1 [compound 8] | 100 | 99 | 99 | 99 | 99
2 | Cn1cc(C(=O)Nc2ccccc2-c2ccc(-n3ccc(-c4ccc(F)cc4F)n3)nc2)c(C(F)F)n1 [compound 101] | 100 | 60 | 92 | 94 | 71
3 | O=C(Nc1ccccc1-c1ccc(-n2ccc(C(F)(F)F)n2)nc1)c1nccnc1Cl [compound 25] | 98 | 82 | 90 | 100 | 99
4 | O=C(Nc1ccccc1-c1cnc(-n2cc(Cl)cn2)c(Cl)c1)c1ccccc1C(F)(F)F [compound 60] | 100 | 0 | 99 | 100 | 34
5 | O=C(Nc1ccccc1-c1ccc(C2=NOC(c3ccc(F)cc3)C2)nc1)c1ncccc1C(F)(F)F (racemic) [compound 6] | 100 | 100 | 0 | 99 | 99
6 | N-[2-[5-fluoro-6-[3-(trifluoromethyl)-1H-pyrazol-1-yl]-3-pyridinyl]phenyl]-3-(trifluoromethyl)-2-pyridinecarboxamide [Compound 50] | 100 | 100 | 100 | 100 | 99
7 | Cc1ccc(-c2ccc(-c3ccccc3NC(=O)c3cn(C)nc3C(F)F)cn2)o1 [compound 22] | 100 | 0 | 21 | 33 | 94
8 | Cc1ccc(-c2ccc(-c3ccccc3NC(=O)c3cn(C)nc3C(F)F)cn2)s1 [compound 21] | 100 | 97 | 43 | 81 | 99
9 | O=C(Nc1ccccc1-c1ccc(-n2cc(-c3cccc(F)c3)cn2)nc1)c1ncccc1C(F)(F)F [compound 27] | 98 | 99 | 96 | 100 | 89
10 | COc1cccc(C2CC(c3ccc(-c4ccccc4NC(=O)c4ncccc4C(F)(F)F)cn3)=NO2)c1 (racemic) [compound 18] | 99 | 100 | 0 | 100 | 96
11 | Cc1cnn(-c2ccc(-c3ccccc3NC(=O)c3cn(C)nc3C(F)F)cn2)c1 [compound 45] | 100 | 98 | 99 | 100 | 99
12 | Cn1cc(C(=O)Nc2ccccc2-c2ccc(-n3cc(-c4ccccc4F)cn3)nc2)c(C(F)F)n1 [compound 7] | 100 | 100 | 97 | 100 | 100
